# Reference: ChEMBL document CHEMBL1201862, “PubChem BioAssay data set” (2004)
# The source made the active and inactive calls.
# Experiments:
# [1] = biological target: T1, Sentrin-specific protease 8 (Homo sapiens, UniProt Q96LD8); format: functional
# T1 sequence (Q96LD8 whole entry): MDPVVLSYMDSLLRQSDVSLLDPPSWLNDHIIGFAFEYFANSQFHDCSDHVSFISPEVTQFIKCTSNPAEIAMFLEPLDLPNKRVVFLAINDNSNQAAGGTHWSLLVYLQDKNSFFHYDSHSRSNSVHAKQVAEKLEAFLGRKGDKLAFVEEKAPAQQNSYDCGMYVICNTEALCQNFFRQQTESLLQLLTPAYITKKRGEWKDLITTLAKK
# Caspase-3 = biological target: T2, Caspase-3 (Homo sapiens, UniProt P42574); experiment: Dose-response confirmation of uHTS inhibitor hits of Sentrin-Specific Protease 8 in a Caspase-3 Fluorescence assay.; format: functional
# T2 sequence (P42574 whole entry): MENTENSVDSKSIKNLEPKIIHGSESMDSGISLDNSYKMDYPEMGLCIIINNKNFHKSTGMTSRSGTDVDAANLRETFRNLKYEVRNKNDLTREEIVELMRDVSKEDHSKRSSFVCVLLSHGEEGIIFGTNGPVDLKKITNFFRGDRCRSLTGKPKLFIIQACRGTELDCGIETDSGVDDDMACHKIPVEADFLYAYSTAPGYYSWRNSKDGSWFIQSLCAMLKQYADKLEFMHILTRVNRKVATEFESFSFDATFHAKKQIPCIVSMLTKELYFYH
# Protein RecA = biological target: T3, Protein RecA (Mycobacterium tuberculosis, UniProt P9WHJ3); experiment: Fluorescence Cell-Free Homogeneous Dose Retest to Identify Inhibitors of RecA-Intein Splicing Activity. [Related pubchem assays (depositor defined):AID2097, AID2223, AID489010, AID492950]; format: functional
# T3 sequence (P9WHJ3 whole entry): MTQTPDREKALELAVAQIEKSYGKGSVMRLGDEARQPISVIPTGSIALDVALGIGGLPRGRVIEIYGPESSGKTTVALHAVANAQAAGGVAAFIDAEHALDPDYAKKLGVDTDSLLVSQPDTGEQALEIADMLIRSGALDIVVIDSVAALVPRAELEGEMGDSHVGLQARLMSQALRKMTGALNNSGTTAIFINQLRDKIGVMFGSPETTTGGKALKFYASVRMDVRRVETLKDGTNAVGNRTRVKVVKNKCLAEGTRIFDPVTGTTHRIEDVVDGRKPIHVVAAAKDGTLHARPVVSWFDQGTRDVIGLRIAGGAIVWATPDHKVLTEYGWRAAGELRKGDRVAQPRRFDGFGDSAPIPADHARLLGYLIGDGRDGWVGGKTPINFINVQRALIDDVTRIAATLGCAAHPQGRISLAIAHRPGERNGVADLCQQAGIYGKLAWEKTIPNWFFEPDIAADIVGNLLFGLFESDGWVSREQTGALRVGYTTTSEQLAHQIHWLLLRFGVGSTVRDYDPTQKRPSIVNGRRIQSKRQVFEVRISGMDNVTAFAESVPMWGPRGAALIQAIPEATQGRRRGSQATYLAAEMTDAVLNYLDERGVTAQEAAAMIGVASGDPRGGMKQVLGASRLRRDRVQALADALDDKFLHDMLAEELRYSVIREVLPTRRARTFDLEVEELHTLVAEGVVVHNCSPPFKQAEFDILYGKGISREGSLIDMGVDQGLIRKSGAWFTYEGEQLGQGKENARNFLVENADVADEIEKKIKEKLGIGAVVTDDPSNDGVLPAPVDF
# [2] = biological target: T1, Sentrin-specific protease 8; format: functional; remark: listed apart in the source
# [3] = biological target: T4, Replicative DNA helicase DnaB (Mycobacterium tuberculosis, UniProt P9WMR3); experiment: DnaB intein splicing inhibitors, dose response, biochemical, cell-free fluorescence (AID 449749); format: functional
# T4 sequence (P9WMR3 whole entry): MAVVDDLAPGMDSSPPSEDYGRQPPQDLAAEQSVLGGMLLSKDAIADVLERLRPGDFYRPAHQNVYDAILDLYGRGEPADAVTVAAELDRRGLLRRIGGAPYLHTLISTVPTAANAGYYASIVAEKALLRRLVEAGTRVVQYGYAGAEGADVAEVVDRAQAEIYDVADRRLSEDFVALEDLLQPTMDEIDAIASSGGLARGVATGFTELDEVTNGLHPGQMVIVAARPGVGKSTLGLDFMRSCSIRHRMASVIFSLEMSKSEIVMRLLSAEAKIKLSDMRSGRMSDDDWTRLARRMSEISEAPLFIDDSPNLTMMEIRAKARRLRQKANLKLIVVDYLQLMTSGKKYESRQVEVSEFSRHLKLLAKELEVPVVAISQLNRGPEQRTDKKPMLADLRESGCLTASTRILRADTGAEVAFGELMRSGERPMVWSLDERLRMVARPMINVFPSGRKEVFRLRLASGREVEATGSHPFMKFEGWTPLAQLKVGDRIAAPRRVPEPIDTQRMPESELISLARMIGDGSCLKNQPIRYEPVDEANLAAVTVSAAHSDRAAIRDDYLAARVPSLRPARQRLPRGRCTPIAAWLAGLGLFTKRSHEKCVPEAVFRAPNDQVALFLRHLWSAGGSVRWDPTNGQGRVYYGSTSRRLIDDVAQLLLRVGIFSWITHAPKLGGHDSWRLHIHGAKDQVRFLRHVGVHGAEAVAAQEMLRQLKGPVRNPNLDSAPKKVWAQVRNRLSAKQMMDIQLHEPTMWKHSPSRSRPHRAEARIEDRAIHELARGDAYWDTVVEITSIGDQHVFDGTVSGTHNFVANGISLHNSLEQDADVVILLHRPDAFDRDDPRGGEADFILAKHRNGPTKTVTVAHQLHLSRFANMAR
# [4] = biological target: T5, DNA repair and recombination protein RAD54-like (Homo sapiens, UniProt Q92698); experiment: inhibitors of human RAD54 branch migration, confirmation, biochemical, fluorescence, cherry-picked samples, dose series (AID 651657); format: functional
# T5 sequence (Q92698 whole entry): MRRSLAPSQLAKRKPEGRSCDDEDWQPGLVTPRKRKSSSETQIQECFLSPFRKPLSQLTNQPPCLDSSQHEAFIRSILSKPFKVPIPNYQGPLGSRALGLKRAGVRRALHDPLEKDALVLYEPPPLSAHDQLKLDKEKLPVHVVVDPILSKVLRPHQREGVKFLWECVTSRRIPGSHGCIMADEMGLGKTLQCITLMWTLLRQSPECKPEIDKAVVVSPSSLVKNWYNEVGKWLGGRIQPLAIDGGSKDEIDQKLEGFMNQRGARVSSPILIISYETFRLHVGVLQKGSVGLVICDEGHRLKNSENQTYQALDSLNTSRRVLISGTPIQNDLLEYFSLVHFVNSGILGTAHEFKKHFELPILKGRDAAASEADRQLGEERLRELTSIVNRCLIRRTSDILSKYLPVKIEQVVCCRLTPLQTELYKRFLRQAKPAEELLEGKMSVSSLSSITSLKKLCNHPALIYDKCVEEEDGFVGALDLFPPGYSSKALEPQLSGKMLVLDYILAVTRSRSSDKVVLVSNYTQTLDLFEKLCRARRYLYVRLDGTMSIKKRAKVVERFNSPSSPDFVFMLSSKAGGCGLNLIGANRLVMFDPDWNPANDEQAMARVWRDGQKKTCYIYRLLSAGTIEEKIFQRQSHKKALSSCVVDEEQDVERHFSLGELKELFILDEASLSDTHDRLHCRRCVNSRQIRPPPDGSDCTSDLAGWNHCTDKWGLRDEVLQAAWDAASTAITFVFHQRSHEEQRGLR
# [5] = biological target: DNA repair protein RAD52 homolog (Homo sapiens, UniProt P43351); format: functional, biochemical
# Chain of DNA repair protein RAD52 homolog (P43351 whole entry): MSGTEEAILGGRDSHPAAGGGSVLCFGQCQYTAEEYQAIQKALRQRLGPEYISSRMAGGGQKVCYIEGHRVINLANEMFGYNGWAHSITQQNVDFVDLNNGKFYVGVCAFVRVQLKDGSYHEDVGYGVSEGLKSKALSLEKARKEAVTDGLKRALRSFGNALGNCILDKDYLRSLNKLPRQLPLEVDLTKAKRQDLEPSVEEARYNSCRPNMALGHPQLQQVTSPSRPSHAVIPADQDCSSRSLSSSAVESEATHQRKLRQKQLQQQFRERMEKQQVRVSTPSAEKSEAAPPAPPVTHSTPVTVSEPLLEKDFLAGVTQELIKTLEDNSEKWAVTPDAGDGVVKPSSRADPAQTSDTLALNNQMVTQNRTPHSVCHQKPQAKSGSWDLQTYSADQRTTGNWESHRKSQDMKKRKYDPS
# [6] = MDA-MB-231 cell growth inhibition, dose response, cytotoxicity control for RAD54 inhibitor project, CellTiter-Glo luminescence, cherry-pick (AID 651692); format: functional, cell-based
# [7] = StAR promoter reporter inhibition counter-screen, dose response, counter-screen for LRH-1 inverse agonist project, cell-based, luminescence, luciferase reporter (AID 651969); format: functional
# [8] = biological target: Nuclear receptor subfamily 5 group A member 2 (Homo sapiens, UniProt O00482); format: functional, cell-based;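 note: HEK293T cells transfected with LRH-1 and a StAR promoter luciferase reporter; potency for inhibitors that lower LRH-1 driven reporter light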
# Chain of Nuclear receptor subfamily 5 group A member 2 (O00482 whole entry): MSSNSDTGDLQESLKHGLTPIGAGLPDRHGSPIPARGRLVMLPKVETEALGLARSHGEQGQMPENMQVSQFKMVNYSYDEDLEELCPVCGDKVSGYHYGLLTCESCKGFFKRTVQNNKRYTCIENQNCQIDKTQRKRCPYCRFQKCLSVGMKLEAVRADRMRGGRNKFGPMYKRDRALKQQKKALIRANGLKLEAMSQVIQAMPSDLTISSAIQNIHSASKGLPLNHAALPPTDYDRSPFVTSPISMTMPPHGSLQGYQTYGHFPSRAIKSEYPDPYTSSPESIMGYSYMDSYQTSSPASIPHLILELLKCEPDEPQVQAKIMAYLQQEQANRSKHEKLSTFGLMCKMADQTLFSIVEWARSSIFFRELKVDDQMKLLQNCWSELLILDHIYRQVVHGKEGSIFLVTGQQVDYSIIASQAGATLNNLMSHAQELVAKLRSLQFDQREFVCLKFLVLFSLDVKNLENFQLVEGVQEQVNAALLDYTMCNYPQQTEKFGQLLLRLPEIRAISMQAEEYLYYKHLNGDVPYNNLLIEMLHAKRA
# Steroidogenic factor 1 = Steroidogenic factor 1 (Homo sapiens, UniProt Q13285); experiment: Counterscreen for inverse agonists of the liver receptor homolog-1 (LRH-1; NR5A2): Luminescence-based cell-based high throughput dose response assay to identify inverse agonists of the Steroidogenic Factor 1 Nuclear Receptor (SF1; NR5A1).; format: functional
# Chain of Steroidogenic factor 1 (Q13285 whole entry): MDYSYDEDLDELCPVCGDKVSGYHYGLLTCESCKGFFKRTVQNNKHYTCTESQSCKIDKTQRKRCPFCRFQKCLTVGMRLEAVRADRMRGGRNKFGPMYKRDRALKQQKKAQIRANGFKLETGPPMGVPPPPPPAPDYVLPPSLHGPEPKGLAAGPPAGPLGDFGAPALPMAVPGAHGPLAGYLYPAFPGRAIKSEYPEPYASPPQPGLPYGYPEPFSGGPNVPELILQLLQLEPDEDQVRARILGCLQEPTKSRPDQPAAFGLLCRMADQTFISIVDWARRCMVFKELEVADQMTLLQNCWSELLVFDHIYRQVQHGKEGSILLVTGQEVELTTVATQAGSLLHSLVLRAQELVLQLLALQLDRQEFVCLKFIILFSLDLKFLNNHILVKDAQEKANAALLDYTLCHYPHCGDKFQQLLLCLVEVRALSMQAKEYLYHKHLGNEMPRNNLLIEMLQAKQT
# Beta-lactamase [9] = biological target: Beta-lactamase (Pseudomonas aeruginosa, UniProt Q79MP6);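 note: biochemical dose-response test of metallo-beta-lactamase enzyme inhibition, read out by epi-absorbance; purified recombinant IMP-1 metallo-beta-lactamase with nitrocefin as substrate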
# Chain of Beta-lactamase (Pseudomonas aeruginosa, UniProt Q79MP6) (Q79MP6 whole entry): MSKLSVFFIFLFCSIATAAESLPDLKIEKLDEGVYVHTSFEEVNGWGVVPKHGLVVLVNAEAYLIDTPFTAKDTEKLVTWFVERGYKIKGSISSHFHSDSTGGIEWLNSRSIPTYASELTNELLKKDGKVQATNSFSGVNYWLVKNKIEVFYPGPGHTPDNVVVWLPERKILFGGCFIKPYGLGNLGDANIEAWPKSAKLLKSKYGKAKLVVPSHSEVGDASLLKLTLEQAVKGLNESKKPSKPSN
# Beta-lactamase [10] = biological target: Beta-lactamase (Salmonella choleraesuis (strain SC-B67), UniProt Q5J463)
# Chain of Beta-lactamase (Salmonella choleraesuis (strain SC-B67), UniProt Q5J463) (Q5J463 whole entry): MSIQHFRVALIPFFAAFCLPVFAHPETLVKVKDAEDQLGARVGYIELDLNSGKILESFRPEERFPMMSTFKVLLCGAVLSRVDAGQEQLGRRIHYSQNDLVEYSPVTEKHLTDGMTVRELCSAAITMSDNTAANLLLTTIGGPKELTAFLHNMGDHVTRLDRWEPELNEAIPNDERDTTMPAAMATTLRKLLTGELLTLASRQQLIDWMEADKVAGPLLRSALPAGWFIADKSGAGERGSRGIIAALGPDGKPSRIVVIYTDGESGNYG
# [11] = Inhibition of Plasmodium falciparum NF54 Measured in Cell-Based System Using Plate Reader - 2138-11_Inhibitor_Dose_CherryPick_Activity.; format: functional
# [12] = Inhibition of T. cruzi Tulahuen strain amastigotes in L-6 muscle cells Measured in Cell-Based and Microorganism Combination System Using Plate Reader - 2138-03_Inhibitor_Dose_CherryPick_Activity.; format: functional; settings: Rattus norvegicus, L6
# [13] = intracellular Trypanosoma cruzi inhibitors in host cells – cell-based, plate reader, cherry-pick samples, set 3, dose response (AID 651818); format: functional;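 note: compounds incubated with infected cells for about four days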
# [14] = T. b. rhodesiense proliferation inhibition, dose response, STIB900 strain, plate reader, cherry pick (AID 651893); format: functional, cell-based; settings: Trypanosoma brucei
# [15] = L. donovani amastigote growth inhibition, dose response, axenic amastigotes, plate reader, cherry pick (AID 651891); format: functional, cell-based; settings: Leishmania donovani
# [16] = cytotoxicity in L-6 rat myocytes, dose response, cytotoxicity control, cell-based, plate reader, cherry-pick (AID 651896); format: functional
# [17] = Shn3 3'UTR reporter inhibitors, dose response, cell-based, Clone20 osteoblasts, firefly luciferase, cherry-picked (AID 624132); format: functional;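 note: firefly luciferase luminescence from reporter carrying the Shn3 3'UTR in osteoblasts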
# Paired box protein Pax-8 = Paired box protein Pax-8 (Homo sapiens, UniProt Q06710); experiment: inhibitors of PAX8-driven TPO luciferase reporter, dose response, RMG-I cells, cherry-pick (AID 687027); format: functional, cell-based;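 note: luciferase reporter driven by Pax8 target thyroperoxidase promoter measured by SteadyGlo luminescence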
# Chain of Paired box protein Pax-8 (Q06710 whole entry): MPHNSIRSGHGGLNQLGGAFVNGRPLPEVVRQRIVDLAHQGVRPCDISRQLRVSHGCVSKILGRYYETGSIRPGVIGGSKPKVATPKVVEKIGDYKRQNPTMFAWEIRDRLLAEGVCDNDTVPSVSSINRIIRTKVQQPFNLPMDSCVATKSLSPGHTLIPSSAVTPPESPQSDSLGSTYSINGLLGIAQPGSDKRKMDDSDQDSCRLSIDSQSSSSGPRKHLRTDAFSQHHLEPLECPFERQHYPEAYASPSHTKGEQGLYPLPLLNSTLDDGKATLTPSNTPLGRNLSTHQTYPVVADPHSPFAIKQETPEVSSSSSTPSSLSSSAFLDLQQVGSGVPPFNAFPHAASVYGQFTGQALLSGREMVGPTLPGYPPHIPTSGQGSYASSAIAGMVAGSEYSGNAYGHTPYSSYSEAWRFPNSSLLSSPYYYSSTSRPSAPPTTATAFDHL
# [18] = HepG2 cell cytotoxicity, dose response, cytotoxicity control for Shn3 inhibitor project, CellTiter-Glo, cherry-picked (AID 624134); format: functional, cell-based
# [19] = Fluorescence-based cell-based high throughput dose response assay for inhibitors of the interaction of nucleotide-binding oligomerization domain containing 2 (NOD2) and the receptor-interacting serine-threonine kinase 2 (RIPK2).; format: functional; settings: Homo sapiens
# [20] = control 3'UTR Renilla luciferase suppression, dose response, counter-screen for Shn3 inhibitor project, cell-based, Clone20-Shn3RL, cherry-picked (AID 624133); format: functional
# Beta Lactamase = Beta Lactamase (Pseudomonas aeruginosa, UniProt Q932Y6); experiment: beta-lactamase reporter inhibitor potency, dose response, artefact control for NOD2-RIPK2 interaction inhibitor project, BLA reporter cells, FRET fluorescence (AID 651552); format: functional, cell-based
# Chain of Beta Lactamase (Q932Y6 whole entry): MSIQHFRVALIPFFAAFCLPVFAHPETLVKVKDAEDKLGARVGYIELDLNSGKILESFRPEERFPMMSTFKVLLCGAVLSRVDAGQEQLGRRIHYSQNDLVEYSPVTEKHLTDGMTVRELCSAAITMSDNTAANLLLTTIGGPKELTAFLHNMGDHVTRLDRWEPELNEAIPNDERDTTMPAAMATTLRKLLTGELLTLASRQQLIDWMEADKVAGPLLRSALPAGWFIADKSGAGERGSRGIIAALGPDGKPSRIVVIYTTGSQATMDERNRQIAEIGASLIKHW
smiles,measurement,setting,value
COc1ccc(-c2csc(CCN3N=C(C)CC3=O)n2)cc1,IC50,[1],14.6 µM (active)
same,IC50,Caspase-3,100 µM (inactive)
same,EC50,Protein RecA,1.54 µM (active)
same,IC50,[2],12.1 µM (active)
same,AC50,[3],3.27 µM (active)
COc1cc2ccccc2cc1C(=O)N(CCN(C)C)c1nc2c(OC)ccc(OC)c2s1,AC50,[4],100 µM (inactive)
same,AC50,[5],7.36 µM (active)
same,AC50,[6],18.1 µM (active)
CCCN(CC(=O)Nc1ccc(C(C)=O)cc1)CC(=O)Nc1ccccc1C,IC50,[7],35.9 µM (inactive)
same,IC50,[8],12 µM (inactive)
same,IC50,Steroidogenic factor 1,941 nM (active)
CC(C)(C)c1ccc(-c2c(C(=O)O)c(C(=O)O)c3n2CSC3)cc1,IC50,Beta-lactamase [9],35.1 µM (inactive)
same,IC50,Beta-lactamase [10],> 59.6 µM (inactive)
C[C@H](CO)N1C[C@H](C)[C@H](CN(C)Cc2ccccc2)Oc2c(NC(=O)c3ccncc3)cccc2C1=O,IC50,[11],20.6 µM (inactive)
same,IC50,[12],20.6 µM (inactive)
same,AC50,[13],208 nM (active)
same,IC50,[14],75.4 µM (inactive)
same,IC50,[15],> 100 µM (inactive)
same,IC50,[16],> 100 µM (inactive)
CC1CC(C)CC(C)C(O)C(C#N)=CC=CCC(C2CCCC2C(=O)O)OC(=O)CC(O)C(C)C1 (stereo not given),AC50,[17],< 260 nM (active)
same,AC50,Paired box protein Pax-8,< 260 nM (active)
same,AC50,[18],10.2 µM (active)
same,IC50,[19],49.8 µM (inactive)
same,AC50,[20],1.08 µM (active)
same,IC50,Beta Lactamase,49.8 µM (inactive)
